Data published in patent publication US12180137B1, “Solid forms of enantiopure deuterium-enriched bupropion and methods of use thereof” (DeuteRx, LLC, priority 2024, dated 2024).
Where a name gives a salt, the structure may show the parent alone.

Assay: Particle size distribution by laser diffraction (Malvern Mastersizer 3000, wet dispersion)
Type: physicochemical
Details: wet dispersion in Isopar G, average of three consecutive measurements
Experimental: Particle size distribution was analyzed using laser diffraction. The apparatus used was a Malvern Mastersizer 3000 equipped with a Hydro 3000S cell for wet dispersion measurements. The measuring range was 0.01-3500 μm, the dispersant used was Isopar G (dispersant RI 1.42). The scattering model used was Mie (material RI 1.50, AI 0.10). The cell was cleaned, filled with dispersant, aligned and the background measured (30 sec. for red light, 10 seconds for blue light). The pump speed was set at 2800 rpm. About 100 mg of the sample were dispersed in 0.5 ml of 2% w/w soy lecithin solution in isopar G, stirred gently with a glass rod and brought to 10 ml with isopar G. The suspension was sonicated for about a minute, then added dropwise to the measurement cell until an obscuration of 10-20% was obtained. The sample was then measured for 20 seconds with red light and 10 seconds with blue light. The results given, expressed in Dv(10), Dv(50) and Dv(90) are the average of three consecutive measurements (Table 3).

Row | Compound | Particle size distribution Dv(10) [μm] | Particle size distribution Dv(50) [μm] | Particle size distribution Dv(90) [μm]
1 | CC(NC(C)(C)C)C(=O)c1cccc(Cl)c1 (racemic) [Bupropion HCl] | 4.9 | 64 | 208
2 | [2H]N(C(C)(C)C)[C@@]([2H])(C)C(=O)c1cccc(Cl)c1 [Compound 101] | 7.1 | 31 | 179
